Data taken from patent US12673063B2, “Methods and materials for treatment of fibrosis” (Massachusetts Eye and Ear Infirmary, priority 2020, dated 2026).

Tests used:
[1] = system: A549 cells; experiment: CyQUANT Direct Cell Proliferation Assay, A549; type: cell-based, human; conditions: for percent live cells compared to vehicle treated: 48 hours, Ro5-3335 150 μM, Ro24-7429 50 μM-200 μM, Pirfenidone 500 μg/ml, Nintedanib 5 μM; for anti-proliferative effect: 150 μM
Protocol: (§1) Human type II alveolar epithelial cells (A549) were a generous gift from Dr. Lagares (Mass General Hospital). Cells were maintained in low glucose-DMEM containing 10% FBS, 2 mM L-glutamine, 100 U/ml penicillin and 100 μg/ml streptomycin at 37° C. in a humidified 5% C02 atmosphere. Confluent cultures of cells were pretreated with Ro24-7429 for 24 hours followed by stimulation with 5 ng/ml of TGF-β1.
(§2) We tested the effect of RUNX1 inhibition on the proliferation of a human alveolar basal epithelial cell line (A549), primary human-derived pulmonary alveolar epithelial cells (HPAEpi), and in human-derived primary culture lung fibroblasts (HLF). For specific analyses we used escalating doses of Ro24-7429 (50-200 μM), Ro5-3335 (150 μM), pirfenidone (500 μg/ml) and nintedanib (5 μM), the latter two are currently approved drugs for IPF.

[2] = system: human lung fibroblasts (HLF); experiment: CyQUANT Direct Cell Proliferation Assay, HLF; type: cell-based; conditions: 72 hours
Description: as §2, with “We conducted mechanistic studies in cell culture to examine the cellular and molecular mechanisms underlying the robust effects of RUNX1 inhibition in the protection against bleomycin-induced lung injury. We” for “We”

[3] = system: A549 cells; experiment: Lactate dehydrogenase (LDH) cell death assay, A549; type: cell-based; conditions: for cell death by LDH analysis: A549, Ro24-7429 50-200 μM, Ro5-3335 150 μM; for cell death: 500μ g/ml
Protocol: Human type II alveolar epithelial cells (A549) were a generous gift from Dr. Lagares (Mass General Hospital). Cells were maintained in low glucose-DMEM containing 10% FBS, 2 mM L-glutamine, 100 U/ml penicillin and 100 μg/ml streptomycin at 37° C. in a humidified 5% C02 atmosphere.
We tested the effect of RUNX1 inhibition on the proliferation of a human alveolar basal epithelial cell line (A549), primary human-derived pulmonary alveolar epithelial cells (HPAEpi), and in human-derived primary culture lung fibroblasts (HLF).

[4] = system: human lung fibroblasts (HLF); experiment: Lactate dehydrogenase (LDH) cell death assay, HLF; type: cell-based; conditions: Ro24-7429 50-200 μM, Ro5-3335 150 μM
Description: as §2, with “We conducted mechanistic studies in cell culture to examine the cellular and molecular mechanisms underlying the robust effects of RUNX1 inhibition in the protection against bleomycin-induced lung injury. We” for “We”

[5] = system: bleomycin-induced lung fibrosis; experiment: Bleomycin-induced lung fibrosis model, H&E, Masson's trichrome, Ashcroft score; type: in vivo, C57BL/6J mice
Protocol: Animal procedures were approved by the Institutional Animal Care and Use Committee (IACUC) of Massachusetts Eye and Ear, and performed in accordance with the Association for Research in Vision and Ophthalmology Statement for the Use of Animals in Ophthalmic and Vision Research. C57BL/6J male and female mice of 6-8 weeks-old were purchased from Jackson Laboratories. For all procedures, mice were anesthetized by intraperitoneal injection of Ketamine/xylazine mixture (100/50 mg/Kg).
(§3) Bleomycin sulphate (Sigma-Aldrich) was dissolved in sterile 0.9% saline and administered as a single dose of 0.05 units in a total volume of 50 μl in saline solution per animal intratracheally (IT). Control animals received 0.05 mL saline alone. A preventative regimen was chosen and each animal received either Ro24-7429 drug 70 mg/kg or vehicle every other day 7 days before the induction of the model and continued until the end of the experiment for 1 week or 2 weeks. All animals received intratracheal instillations of either bleomycin on day 0 as previously described (52-55). A separate experiment was performed with similar drug-vehicle treatments and IT saline instillation for controls. The surgeon performing IT instillations was masked to the identity of the treatment groups.
Lung samples were fixed in 10% neutral buffered formalin (Sigma, HT501128-4L), for 24 hours for histological analysis. Fixed lungs were paraffin embedded and sectioned (5 μm-thick) and stained with hematoxylin and eosin (H&E) to examine gross morphology and Masson's trichrome stain to visualize collagen deposition and examined by microscopy. Lung fibrosis was measured using quantitative histology using the Ashcroft method of analysis. All measurements were performed by two independent graders in a blinded fashion. Images were acquired with the Nikon Eclipse E800 microscope with an Olympus DP70 Camera. Adjacent 2× images of the lung were stitched together using Adobe Photoshop CS6.
Bleomycin triggers a strong inflammatory response in the lung at day 7 characterized by infiltration with neutrophils and macrophages, vascular leakage, and up-regulation of cytokines, chemokines and other inflammatory mediators. By day 14, bleomycin treated mice are expected to develop significant lung fibrosis including disruption of the normal lung architecture, thickening of the alveolar septa, and excessive extracellular matrix and collagen deposition around the alveolar structures. We examined the effects of escalating doses of Ro24-7429 (17.5, 35 and 70 mg/kg per day) on bleomycin-induced lung fibrosis by H&E and Masson's trichrome staining in mice at day 14 (FIG. 1A-B, FIG. 5A-B). These doses were estimated to be equivalent to those used in the Ro24-7429 human trial, 75, 150 or 300 mg per day, respectively (28).

[6] = system: RUNX1 and fibrosis markers in lung tissue; experiment: Expression of RUNX1 and fibrosis markers in bleomycin-injured lung (Western blot, qRT-PCR, immunostaining); type: in vivo, C57BL/6J mice
Protocol: as §3
Paraffin embedded sections were processed for immunofluorescence using the following antibodies: anti-RUNX1 (1:100; LS-B13948; Lifespan Biosciences, Seattle, WA), anti-human a-SMA antibody (1:200; NB500-170; Novus Biologicals, Ontario, Canada), anti-Iba1 antibody (1:100; ab5076; Abcam, Cambridge, United Kingdom), anti-Ly6g antibody (1:100; ab25377; Abcam, Cambridge, United Kingdom), and Isolectin GS-IB4 Alexa Fluoro 594 Conjugate (1:250; 121413; Invitrogen, Carlsbad, CA). For heat-induced antigen retrieval the slides were boiled in 10 mM sodium citrate buffer (pH 6.0) and then maintained at a sub-boiling temperature (95-100° C.) for 20 minutes and subsequently cooled on the bench top for 30 minutes. Slides were washed with distilled water and permeabilized with 0.5% Triton X-100 in PBS for 5 minutes and blocked (10% goat serum in PBS) for 1 hour at RT. The primary antibody was prepared in antibody dilution buffer (5% goat serum) and samples were incubated overnight with the antibody solution at 4° C. Sections were washed with PBS and incubated with goat anti-rabbit Alexa Fluor 594 secondary antibody (1:500; A-11012; Invitrogen, Carlsbad, CA) for 2 hours at room temperature. Slides were mounted and visualized using Prolong Gold Antifade Reagent with DAPI (P36935, Invitrogen). Images were obtained using an EVOS FL automated stage live cell imaging system (Life Technologies, Cambridge, MA).
(§4) Protein concentration was determined by Pierce Bicinchonic acid (BCA) protein assay kit (ThermoFisher; 23227) according to the manufacturer's instructions. 20 μg of total cell lysates were prepared in 4 μL 1M 1,4-dithiothreitol (DTT; Sigma Aldrich) and 10 μL Laemmli buffer (Boston Bioproducts) to a final volume of 40 μL and denatured 5 min at 90° C. Samples were separated electrophoretically for 1 h at 70 V using 4-20% pre-cast gradient gels (Mini-PROTEAN TGX, Bio-Rad) and SDS-Tris-Glycine buffer (Bio-rad). Proteins were transferred to 0.45 μm nitrocellulose membranes for 1 h at 70 V in ice cold […] Tris-Glycine buffer (Bio-rad). Membranes were blocked for 1 h with Odyssey Blocking Buffer (LI-COR Biosciences). Then incubated with primary antibodies for 3 hours RT or overnight at 4 degrees Celsius and then washed 3× with TBS-T and incubated with secondary antibodies IRDye 800CW donkey anti-mouse for 1 hour and washed 3× with TBS-T.
Mice were treated as described previously before euthanasia. Lung samples were collected for qRT-PCR analysis and tissues lysed by homogenization. RNA was extracted using RNeasy Mini Kits (QIAGEN), as per the manufacturer's instructions for tissue samples. Transcription into complementary DNA and analysis were performed as stated previously. Primers for selected genes (Table 1) were purchased from Integrated DNA Technologies (Coralville, IA, USA).

[7] = system: bleomycin-induced inflammation; experiment: Bleomycin-induced lung inflammation, infiltration of neutrophils and macrophages; type: in vivo, C57BL/6J mice; conditions: 1-week and 2-week time points
Protocol: as §3
Paraffin embedded sections were processed for immunofluorescence using the following antibodies: anti-RUNX1 (1:100; LS-B13948; Lifespan Biosciences, Seattle, WA), anti-human a-SMA antibody (1:200; NB500-170; Novus Biologicals, Ontario, Canada), anti-Iba1 antibody (1:100; ab5076; Abcam, Cambridge, United Kingdom), anti-Ly6g antibody (1:100; ab25377; Abcam, Cambridge, United Kingdom), and Isolectin GS-IB4 Alexa Fluoro 594 Conjugate (1:250; 121413; Invitrogen, Carlsbad, CA). […]
We evaluated the potential effect of Ro24-7429 on bleomycin-induced inflammation 1 week and 2 weeks after lung injury (FIGS. 1I-J and 2).

[8] = system: N-Cadherin in A549 cells; experiment: TGF-β1-induced N-Cadherin upregulation, Western blot, A549; type: cell-based, human; conditions: A549, 150 μM and 200 μM, 24 hours prior to TGF-β1 exposure
Protocol: as §1
as §4, with “Then incubated with primary antibodies for 3 hours RT or overnight at 4 degrees Celsius and then washed 3× with TBS-T and incubated with secondary antibodies IRDye 800CW donkey anti-mouse for 1 hour and washed 3× with TBS-T.” left out
(§5) We evaluated the effect of RUNX1 inhibition on the expression of fibrosis markers induced by TGF-β1, a critical mediator of PF (30), in A549 cells at 24, 48 and 72 hours. […]

[9] = system: N-Cadherin in HPAEpi cells; experiment: TGF-β1-induced N-Cadherin upregulation, Western blot, HPAEpi; type: cell-based, human; conditions: 150 μM and 200 μM, 24 hours prior to TGF-β1 exposure
Protocol: (§6) Human Pulmonary Alveolar Epithelial cells (HPAEpiCs) were purchased from ScienCell (Carlsbad, CA, USA) and cultured in alveolar epithelial cell medium (ScienCell) supplemented with 2% fetal bovine serum (FBS), epithelial cell growth supplement, 100 U/mL penicillin G, and 100 µg/mL streptomycin. The cells were cultured and maintained in 6-well plates for experimental purposes.
as §4, with “Then incubated with primary antibodies for 3 hours RT or overnight at 4 degrees Celsius and then washed 3× with TBS-T and incubated with secondary antibodies IRDye 800CW donkey anti-mouse for 1 hour and washed 3× with TBS-T.” left out
as §5

[10] = system: RUNX1 mRNA in HMEC-Ls; experiment: TNF-α-induced RUNX1 mRNA, qRT-PCR, HMEC-Ls; type: cell-based, human; conditions: 75 μM, TNF-α 5 ng/ml, 48 hours
[11] = system: FURIN mRNA in HMEC-Ls; experiment: FURIN mRNA, qPCR, TNF-α-stimulated HMEC-Ls; type: cell-based, human; conditions: TNF-α 5 ng/ml
[12] = system: ACE2 protein in HPAEpi cells; experiment: TGF-β1 and TNF-α induced ACE2 protein, Western blot, HPAEpi cells; type: cell-based, human; conditions: pretreatment
Protocol: as §6
as §4, with “Then incubated with primary antibodies for 3 hours RT or overnight at 4 degrees Celsius and then washed 3× with TBS-T and incubated with secondary antibodies IRDye 800CW donkey anti-mouse for 1 hour and washed 3× with TBS-T.” left out
(§7) Additionally, we studied the effect of RUNX1 inhibition on the expression of ACE2 expression in TGF-β1 and TNF-α stimulated HPAEpi cells. […] FURIN protein levels were also observed to go down by 70% in the Ro24-7429 treated mice as evaluated by Western blot (FIGS. 4E-F).

[13] = system: ACE2 and FURIN in lung tissue; experiment: ACE2 staining and FURIN protein in bleomycin-injured lung; type: in vivo, C57BL/6J mice
Protocol: as §3, with “groups. […]” for “groups.”
Protein concentration was determined by Pierce Bicinchonic acid (BCA) protein assay kit (ThermoFisher; 23227) according to the manufacturer's instructions. […]
as §7

[14] = system: human immunodeficiency virus (HIV); conditions: patients infected with HIV; cited from earlier work
[15] = bleomycin mice, lung tissue, day 14

## O=C1CN=C(c2ccc[nH]2)c2cc(Cl)ccc2N1 [Ro5-3335, [7-chloro-5-(2-pyrryl)-3H-1,4 benzodiazapin-2-(H)-one]]
[1]
  percent live cells compared to vehicle treated: significant reduction
[1]; A549, 48 hours
  anti-proliferative effect: 32%
[1]; A549, 72 hours
  anti-proliferative effect: 50%
[2]; 150 μM
  reduction in proliferation: 40%
[3]
  cell death by LDH analysis: Very low levels of cell death
[4]
  cell death by LDH analysis: Very low levels of cell death

## CNC1=Nc2ccc(Cl)cc2C(c2ccc[nH]2)=NC1 [Ro24-7429, 3H-1,4-Benzodiazepin-2-amine, 7-chloro-N-methyl-5-(1H-pyrrol-2-yl)-]
[5]; 17.5 mg/kg, day 14
  effect on lung phenotype / progression of fibrosis: slight effect
[5]; 35 mg/kg, day 14
  effect on the progression of fibrosis: moderate but variable effect
[5]; 70 mg/kg, day 14
  Ashcroft fibrosis score: significant reduction
[5]; 70 mg/kg, day 14, H&E and Masson's trichrome
  lung structures after bleomycin instillation: robust preservation of lung structures
[6]; 70 mg/kg, bleomycin mice
  α-SMA immunostaining localization: localized only to vessels
[6]; [15]
  expression of E-Cadherin, Western blot: preserved
  expression of RUNX1, Western blot: reduced
  expression of fibronectin, Western blot: reduced
[6]; bleomycin-injured mice, day 14
  RUNX1 upregulation, immunofluorescence and qRT-PCR: significantly attenuated
[6]; compared to vehicle treated mice, day 14
  upregulation of fibrosis markers triggered by bleomycin: blunted
[7]
  infiltration of inflammatory cells, neutrophils and macrophages: reduced infiltration
[1]
  percent live cells compared to vehicle treated: significant reduction
[1]; A549, 48 hours, 50 μM
  reduction in proliferation: 62%
[1]; A549, 48 hours, 200 μM
  reduction in proliferation: 68%
[1]; A549, 72 hours, 200 μM
  reduction in proliferation: 82%
[2]; 50 μM
  reduction in proliferation: 30%
[2]; 200 μM
  reduction in proliferation: 55%
[3]
  cell death by LDH analysis: Very low levels of cell death
[4]
  cell death by LDH analysis: Very low levels of cell death
[8]
  TGF-β1-induced N-Cadherin upregulation: effectively prevented
[9]
  TGF-β1-induced N-Cadherin upregulation: effectively prevented
[10]
  reduction of TNF-α-induced upregulation of RUNX1 mRNA: 50%
[11]
  reduction of FURIN mRNA expression: 70%
[12]
  TGF-β1 and TNFα induced ACE2 protein levels: significantly reduced
[13]; bleomycin mice lungs, Western blot
  decrease of FURIN protein levels: 70%
[13]; bleomycin mouse model, 2-week time point, immunofluorescence
  ACE2 staining in the lung: markedly reduced
[14]
  antiviral activity in clinical trials: no detectable antiviral activity
  safety profile in clinical trials: acceptable safety profile

## COC(=O)c1ccc2c(c1)NC(=O)/C2=C(\Nc1ccc(N(C)C(=O)CN2CCN(C)CC2)cc1)c1ccccc1 [nintedanib]
[1]
  percent live cells compared to vehicle treated: significant reduction

## Cc1ccc(=O)n(-c2ccccc2)c1 [pirfenidone]
[1]
  percent live cells compared to vehicle treated: significant reduction
[3]; A549, 48 hours
  cell death: 8%
[3]; A549, 72 hours
  cell death: 11%
